Broadly, the solubility (kinetic) is the concentration staying in solution when a stock, usually in DMSO, is diluted into the medium.

51 compounds from PubChem BioAssay AID1996 can be followed below.

In brackets after ≈: the same amount, converted by molar mass.

For the data set the following is noted: buffer; pH 7.4; 200.0 µM.
`COCCN(CC(=O)Nc1cccc(C)c1C)C(=O)C1(c2ccccc2)CC1`: the solubility (kinetic) is greater than 57.1 µg/mL. In turn, `Cc1ccc(Nc2ncc3c(n2)CC(C)CC3=O)c(C)c1` (stereo unspecified) came in with a kinetic solubility greater than 42.2 µg/mL. As to `COCc1cc(OC(=O)N(C)C)nc(-c2ccccc2)n1`, the kinetic solubility was greater than 43.1 µg/mL. With `CSc1ncccc1C(=O)OCc1ccc([N+](=O)[O-])cc1` the figure was 0.9 µg/mL (≈ 2.96 µM); with `CCOC(=O)c1oc2ccccc2c1NC(=O)CCl`, 10.8 µg/mL (≈ 38.3 µM). With `CN(c1ccccc1)c1nc(N)c([N+](=O)[O-])c(Nc2ccccc2)n1` the figure was less than 0.1 µg/mL. With `O=C(Cc1c(F)cccc1Cl)N(Cc1ccccc1)c1ccccn1` the figure was 37.3 µg/mL (≈ 105 µM); with `Cc1cccc(C)c1Nc1ncnc2ccccc12.Cl`, greater than 42.9 µg/mL; with `COC(=O)CN1CCN(C(=O)c2ccco2)CC1`, greater than 37.8 µg/mL. The compound `O=c1[nH]c2ccccc2nc1-c1ccccc1` returned a kinetic solubility of 3.9 µg/mL (≈ 17.5 µM). With `Cc1nc2ccc(NS(=O)(=O)c3c(F)cccc3F)cc2s1` the figure was greater than 51.1 µg/mL; with `CN(C)c1nc(OCc2ccccc2)c2ncc(=O)[nH]c2n1`, 1.2 µg/mL (≈ 4.04 µM); with `COc1ccc(NCC(=O)Nc2cccc(S(=O)(=O)N3CCCC3)c2)cc1Cl`, 13.6 µg/mL (≈ 32.1 µM). Next, `CCN(Cc1cc(=O)oc2cc(C)ccc12)c1ccccc1`: 2 µg/mL (≈ 6.82 µM); `CCN(CC(=O)NCc1ccc(F)cc1)CC(=O)NC1CCCC1`: greater than 50.3 µg/mL; `COCCCNC(=O)/C(C#N)=C/c1ccc(F)cc1`: 38.4 µg/mL (≈ 146 µM). Next, `CC1(C)Cc2c(C#N)c(SCCO)nc(N3CCOCC3)c2CO1`: greater than 52.4 µg/mL; `CCOC(=O)C1C2C=CC3(CN(Cc4ccccc4)C(=O)C13)O2` (stereo unspecified): greater than 47 µg/mL; `CCOC(=O)C1CCN(C(=O)c2ccc(C)o2)CC1`: greater than 39.8 µg/mL. Regarding `O=C(CCC(=O)OCC(=O)c1cccc([N+](=O)[O-])c1)NC1CCCCC1`, the kinetic solubility was greater than 54.4 µg/mL. Next, `CN(C(=O)c1cccs1)C1(C)CCS(=O)(=O)C1` (stereo unspecified): greater than 41 µg/mL; `Cc1cc(OCC(=O)NCCc2c[nH]c3ccccc23)c2c(C)cc(=O)oc2c1`: less than 0.4 µg/mL. With `O=C(NC(=S)Nc1cccc(O)c1)C1CCCCC1` the figure was greater than 41.8 µg/mL; with `Cc1ccc2c(c1)cc(C(=O)N1CCN(c3ccccn3)CC1)n2C`, 2.1 µg/mL (≈ 6.28 µM).

Take `CC(NC(=O)Cc1ccc(Br)cc1)c1ccccc1` (stereo unspecified): the solubility (kinetic) is 9.7 µg/mL (≈ 30.5 µM). `COc1ccc(NC(=O)CSc2ccc3c(c2)OCCO3)cc1` came in with a kinetic solubility of 46.1 µg/mL (≈ 139 µM). The compound `O=C1NC2(CCCCC2)C(=O)N1CCN1C(=O)c2ccccc2C1=O` showed a kinetic solubility of 40.1 µg/mL (≈ 117 µM). Compound `COc1ccc(-c2nc(N)ncc2-c2ccccc2)c(O)c1` yielded a solubility (kinetic) of 0.9 µg/mL (≈ 3.07 µM). Compound `Cc1ccc(CN2CCCN(C)CC2)c(C)c1` came in with a kinetic solubility of 23.4 µg/mL (≈ 101 µM). Next, `COc1cccc(C(=O)Nc2cc(C)on2)c1OC`: 34 µg/mL (≈ 130 µM); `CCOC(=O)c1c(C)nsc1NCc1ccccc1`: 8.5 µg/mL (≈ 30.8 µM). Next, `CS(=O)(=O)N(CC(=O)O)c1ccc(C23CC4CC(CC(C4)C2)C3)cc1`: 49.5 µg/mL (≈ 136 µM); `CC(C)N(Cc1ccccc1)C(=O)c1ccc2c(c1)OCO2`: 42.8 µg/mL (≈ 144 µM). With `O=C(O)CC1(CC(=O)N2CCC(C(=O)O)CC2)CCCC1` the figure was 40.6 µg/mL (≈ 137 µM).

As to `OC(COc1ccc(Cl)cc1Cl)Cn1ccnc1` (stereo unspecified), the solubility (kinetic) turned out to be 39.6 µg/mL (≈ 138 µM).

Regarding `CC(OC(=O)CSc1ccc(F)cc1)C(=O)NC1(C#N)CCCCC1` (stereo unspecified), the kinetic solubility worked out at 42.2 µg/mL (≈ 116 µM).

With `O=C(COC(=O)COc1ccc2c(c1)CCC2)Nc1ccccc1C(F)(F)F`, the kinetic solubility is 5.3 µg/mL (≈ 13.5 µM). With `Cc1ccc(/C=C(\C#N)C(=O)N2CCCC2)c(C)c1` the figure was greater than 38.1 µg/mL; with `CC(C)NC(=O)[C@@H]1CSC2c3ccccc3C(=O)N21` (stereo partly specified), greater than 41.5 µg/mL. Next, `Cc1onc(C(=O)N2CCN(c3ccccc3)CC2)c1[N+](=O)[O-]`: greater than 47.4 µg/mL; `CN1CCOC(c2ccccc2)c2ccccc2C1.Cl` (stereo unspecified): greater than 43.5 µg/mL. With `O=C(NCc1ccc2c(c1)OCO2)C1CCC(=O)N1C1CCCC1` (stereo unspecified) the figure was greater than 49.6 µg/mL; with `CN=C1C([N+](=O)[O-])=CC=C2C1=NC1(CCCCC1)N2O`, 10.8 µg/mL (≈ 39.1 µM); with `Cc1ccc(N=C2CSC(=O)N2)cc1`, 23.4 µg/mL (≈ 113 µM). In the case of `O=C(CCN1CCN(c2ccccc2)CC1)Nc1ccccc1`, the kinetic solubility turned out to be 40.9 µg/mL (≈ 132 µM). As for `CC(=O)NC(CC(=O)Nc1ccc(S(=O)(=O)N2CCOCC2)cc1)c1ccccc1` (stereo unspecified), the solubility (kinetic) is greater than 64.7 µg/mL.

For `CCN(c1cccc2ccccc12)S(=O)(=O)c1cccs1`, the kinetic solubility came out at 12.5 µg/mL (≈ 39.4 µM). With `Cc1csc(NC(=O)c2ccc(Cl)nc2)n1` the figure was greater than 38.1 µg/mL. In turn, `COc1ccc(C(=O)Nc2ccccc2C(=O)N2CCOCC2)cc1` registered a kinetic solubility greater than 51.1 µg/mL. Next, `CC(=O)N1CCN(CC(c2ccccc2)c2ccccc2)CC1`: 38.7 µg/mL (≈ 125 µM); `CCC1CCCCN1C(=O)CSc1nc(C)cc(C)n1` (stereo unspecified): greater than 44 µg/mL.
